Counter-ions that a name gives are not always drawn. One block for each compound: values may come before it.
Columns and labels:
[1] = test system: corneal neovascularization; assay: Corneal Neovascularization Model; type: in vivo, mice; settings: 100 mg/kg, PO, days 1-10
Procedure: Corneal Neovascularization Model
The sustained release preparations of angiogenic agents (ELVAX pellet) were prepared by solvent casting. […] The solvent was then evaporated, leaving the angiogenic agent in the polymeric matrix
Mice were anesthetized using a 1-1.5 ml/kg solution containing a mixture of 70% ketamine hydrochloride (100 mg/ml) and 30% xylazine (20 mg/ml). Using sterile surgical technique, an ELVAX pellet containing either basic FGF (100 ng) or VEGF (400 ng) was implanted into a previously dissected intrastromal corneal pocket 0.5 mm from the corneoscleral limbus. Following implantation the implantation site margins were reapposed and the eyes were treated with topical antibiotic ointment (bacitracin/neomycin/polymixin). On various days (between postoperative days 4 and 18) the extent of neovascularization was measured.
Neovascularization was monitored by measurements of new vessel growth within the previously avascular cornea. This parameter was obtained by measuring with calipers under microscopic magnification the length of the base of the neovascular bed at the limbus. The area of neovascularization,which is typically triangular, was calculated by dividing the product of the length of the vessel and the base length by two. Data was statistically analyzed via Student-t-test of Log Relative Reduction of Neovascularization. A p-value (p≤0.05) indicates a statistically significant reduction in neovascularization of Treated Group, compared to Placebo Control.

[2] = test system: VEGF 165-induced vascular permeability; assay: Inhibition of Vascular Permeability Assay (Miles Assay); type: in vivo, BALB/c female mice; settings: 100 mg/kg, PO
Procedure: Inhibition of Vascular Permeability Assay (Miles Assay) This assay was performed using BALB/c female mice (Charles River, Wilmington, Mass.). Both sides of the animals were shaved between 24 and 48 hours before the start of the assay. There were 10 animals per experimental group. […] One half hour later the animals were sacrificed by CO2 inhalation. […] Data was statistically analyzed via Student-t-test. A p-value (p≤0.05) indicates a statistically significant difference between the area of vascular permeability of the vehicle control verses the experimental group. Data was statistically analyzed via Student-t-test of Log Relative Area of Permiability. A p-value (p≤0.05) indicates a statistically significant reduction in permeability of Treated Group, compared to Placebo Control.

[3] = test system: Human Epidermoid Tumors (A431); type: in vivo, human tumor in BALB/c nu/nu female mice; settings: 50 mg/kg, IP, day 28
Procedure: In Vivo Inhibition of Growth of Human Epidermoid Tumors (A431)
In vivo testing was performed using BALB/c nu/nu female mice (Charles River, Wilmington, Mass.). The human epidermoid carcinoma cells A-431 (American Type Culture Collection, Rockville, Md. # CRL-155) were grown in vitro and 5×10^6 cells were injected subcutaneously (SC) into mice. When tumors attained a mass of between 100 and 150 mg, the mice were randomized into treatment groups (Day Zero). Mice were treated either intraperitoneally (IP) or orally (PO) once a day on days 1 through 20 post staging with doses of either 100 or 50 mg/kg/dose in 0.2% Klucel. Tumor mass was determined every 7 days [(length×width^2)/2] for up to 42 days post staging. Relative tumor growth (mean tumor mass on day 7, 14, 21, 28, 35 and 42 divided by the mean tumor mass on day zero) was determined for each treatment group. The %T/C (Tumor/Control) was determined by dividing the relative tumor growth of the treated group by the relative tumor growth of the placebo group and multiplying by 100. Data was statistically analyzed via Student-t-test of Log Relative Tumor Growth. A p-value (p≤0.05) indicates a statistically significant reduction in Relative Tumor Growth of Treated Group, compared to Placebo Control. A compound is considered to be active if the %T/C is found to be <60% and a p-value of less than or equal to 0.05 is achieved.

Procedure for KDR: Inhibition of Binding of VEGF 165 to KDR & Flt-1 Receptors as Measured by SPA Assay
Preparation of conditioned media containing the KDR-Fc soluble VEGF receptor.:
Human 293KDR2 cells, which secrete a soluble KDR-Fc fusion protein, were grown in Dulbecco's Modified Eagle Medium supplemented with 10% fetal calf serum, 2 mM glutamine, 10 units/ml penicillin G sulfate, 10 μg/ml streptomycin sulfate and 175 μg/ml geneticin (G418) sulfate. Cells were plated at a density of 10^6 cells/100 mm dish and incubated at 37° C. in a humidified atmosphere containing 95% air and 5% CO2. After 10 days, conditioned medium was collected and centrifuged at 15,000 rpm for 15 min to remove dead cells. A total of 0.1 volume of 1.15% gelatin and 0.02 volume of 1M HEPES buffer (pH 8) was added. Leupeptin and pepstatin A were added to 1 μg/ml each.
Preparation of ^125 I-labelled VEGF ligand:
Recombinant human ^125 T-labelled VEGF 165 was purchased from Amersham (3,800 cpm/fmol). ^125,-labelled VEGF was diluted in DMEM supplemented with gelatin (0.15%) and HEPES buffer (20 mM) to a final concentration of 40,000 cpm/25 μl.
Preparation of SPA beads:
SPA PVT antibody-binding beads were purchased from Amersham. Each bottle of SPA beads (500 mg) was reconstituted in 25 ml of DMEM supplemented with gelatin (0.15%) and HEPES buffer (20 mM). The bottle contents were well mixed (15 min with a stir bar at room temperature).
SPA assays were performed in flat-bottom polystyrene 96 well microtitre plates.
(a) Pipette 50 μl of SPA beads to well.
(b) Pipette 25 μl of conditioned medium to well.
(d) Pipette 25 μl of ^125 J-VEGF 165 to well.
The appropriate control wells were set up to measure non-specific binding, solvent effect, etc. The assays were run in duplicate or triplicate wells. Plates were sealed and incubate at room temperature without shaking for 5 to 20 hours. Plates were then counted in a Packard TopCount microtitre plate liquid scintillation counter.
A typical assay gave 3,000 to 6,000 cpm bound. Background binding (measured in the presence of 100-fold molar excess of unlabelled VEGF 165) was typically 200 to 300 cpm bound. Compounds were tested at 30, 10, 3, 1, 0.3 and 0.1 μg/ml in DMSO. […] Half maximal binding was determined by the following equation:
s=maximal cpm bound in the absence of compound.
The IC50 values were determined graphically by the following procedure:
A graph was drawn plotting compound concentration (x-axis) versus cpm bound (y-axis).
The half maximal binding was calculated using the equation above.
A horizontal line (LINE A) was drawn which intersects the y-axis at the half maximal binding value.
A vertical line (LINE B) was drawn through the point where LINE A intersects the inhibition curve.
The point where LINE B intersects the x-axis was extrapolated from the graph to give the IC50 value.

Structure (SMILES): COc1ccc(C=CC(=O)Nc2cc3sc4cc(NC(=O)C=Cc5ccc(OC)c(OC)c5Cl)c(C(=O)[O-])cc4c3cc2C(=O)[O-])c(Cl)c1OC.[Na+].[Na+]
Inhibition of Corneal Neovascularization ([1]; Day 4): 11% | Inhibition of Corneal Neovascularization ([1]; Day 8): 24% | Inhibition of Corneal Neovascularization ([1]; Day 11): 29% | Inhibition of Corneal Neovascularization ([1]; Day 13): 37%

Structure (SMILES): O=C(Nc1cc2sc3cc(NC(=O)c4cc5ccccc5s4)c(C(=O)O)cc3c2cc1C(=O)O)c1cc2ccccc2s1 [Example 2, 3,7-Bis-r(benzo[b]thiophene-2-carbonyl)amino]dibenzothiophene-2,8-dicarboxylic acid, disodium salt]
% Control ([2]; 4 hr prior to VEGF): 57% | Lesion Area (measured area of vascular permeability) ([2]; 4 hr prior to VEGF): 34.0 mm^2 | IC50 (KDR): 1.5 µg/mL

Structure (SMILES): O=C(Nc1cc2sc3cc(NC(=O)c4ccc5c(c4)C(=O)c4ccccc4C5=O)c(C(=O)O)cc3c2cc1C(=O)O)c1ccc2c(c1)C(=O)c1ccccc1C2=O.[Na].[Na] [Example 4, 3,7-Bis{[(9,10-dihydro-9,10-dioxo-2-anthracenyl)carbonyl]-amino}dibenzothiophene-2,8-dicarboxylic acid, disodium]
Inhibition of Corneal Neovascularization ([1]; Day 4): 55% | Inhibition of Corneal Neovascularization ([1]; Day 8): 38% | Inhibition of Corneal Neovascularization ([1]; Day 11): 40% | Inhibition of Corneal Neovascularization ([1]; Day 13): 23% | IC50 (KDR): 0.2 µg/mL

Structure (SMILES): COc1ccc(/C=C/C(=O)Nc2cc3sc4cc(NC(=O)/C=C/c5ccc(OC)cc5)c(C(=O)O)cc4c3cc2C(=O)O)cc1 [Example 12, 3,7-Bis{[3-(4-methoxyphenyl)acryloylamino]-dibenzothiophene-2,8-dicarboxylic Acid, disodium salt]
Inhibition of Corneal Neovascularization ([1]; Day 4): 41% | Inhibition of Corneal Neovascularization ([1]; Day 8): 41% | Inhibition of Corneal Neovascularization ([1]; Day 11): 34% | Inhibition of Corneal Neovascularization ([1]; Day 13): 8% | IC50 (KDR): 4.9 µg/mL

Structure (SMILES): CCOP(=O)(O)c1cc2c(cc1NC(=O)c1cc3ccccc3s1)S(=O)(=O)c1cc(NC(=O)c3cc4ccccc4s3)c(P(=O)(O)OCC)cc1-2 [Example 23a, [3,7-Bis[(benzo[b]thiophene-2-carbonyl)amino-8-(ethoxyhydroxyphosphoryl)-5,5-dioxo-5H-5λ^6-dibenzothiophen-2-yl]phosphonic acid monoethyl ester, disodium salt]
Inhibition of Corneal Neovascularization ([1]; Day 4): 70% | Inhibition of Corneal Neovascularization ([1]; Day 8): 55% | Inhibition of Corneal Neovascularization ([1]; Day 11): 46% | Inhibition of Corneal Neovascularization ([1]; Day 13): 50% | IC50 (KDR): 1.65 µg/mL

Structure (SMILES): O=C(C=Cc1ccc(-c2ccccc2)cc1)Nc1cc2c(cc1S(=O)(=O)O)-c1cc(S(=O)(=O)O)c(NC(=O)C=Cc3ccc(-c4ccccc4)cc3)cc1S2(=O)=O [Example 24, 3,7-Bis-[3-(4-phenylphenyl)acryloylamino]-5,5-dioxo-5H-5λ^6-dibenzothiophene-2,8-disulfonic acid, disodium salt]
% Control ([2]; 1 hr prior to VEGF): 55% | Lesion Area (measured area of vascular permeability) ([2]; 1 hr prior to VEGF): 25.8 mm^2 | % Control ([2]; 2 hr prior to VEGF): 80% | Lesion Area (measured area of vascular permeability) ([2]; 2 hr prior to VEGF): 37.8 mm^2 | % Control ([2]; 4 hr prior to VEGF): 49% | Lesion Area (measured area of vascular permeability) ([2]; 4 hr prior to VEGF): 23.1 mm^2 | IC50 (KDR): 0.8 µg/mL

Structure (SMILES): O=Cc1ccc(/C=C/C(=O)Nc2cc3c(cc2S(=O)(=O)O)-c2cc(S(=O)(=O)O)c(NC(=O)/C=C/c4ccc(C=O)cc4)cc2S3(=O)=O)cc1 [Example 29, 3,7-Bis-[3-(4-formylphenyl)-acryloylamino]-5,5-dioxo-5H-5^6-dibenzothiophene-2,8-disulfonic acid, disodium salt]
% Control ([2]; 4 hr prior to VEGF): 81% | Lesion Area (measured area of vascular permeability) ([2]; 4 hr prior to VEGF): 76.5 mm^2 | IC50 (KDR): 0.5 µg/mL

Structure (SMILES): O=C(Nc1cc2c(cc1S(=O)(=O)O)-c1cc(S(=O)(=O)O)c(NC(=O)c3cc4ccccc4o3)cc1S2(=O)=O)c1cc2ccccc2o1 [Example 42, 3,7-Bis[(benzo[b]furan-2-carbonyl)amino]-5,5-dioxo-5H-5^6-dibenzothiophene-2,8-disulfonic acid, disodium salt]
% Control ([2]; 2 hr prior to VEGF): 74% | Lesion Area (measured area of vascular permeability) ([2]; 2 hr prior to VEGF): 40.0 mm^2 | Lesion Area (measured area of vascular permeability) ([2]; 2 hr prior to VEGF, disodium salt): 33.5 mm^2 | % Control ([2]; 4 hr prior to VEGF): 69% | Lesion Area (measured area of vascular permeability) ([2]; 4 hr prior to VEGF): 31.1 mm^2 | IC50 (KDR): 0.6 µg/mL

Structure (SMILES): CCCc1c(C(=O)Nc2cc3c(cc2S(=O)(=O)O)-c2cc(S(=O)(=O)O)c(NC(=O)c4cnn(-c5ccc(Cl)cc5)c4CCC)cc2S3(=O)=O)cnn1-c1ccc(Cl)cc1 [Example 45, 3,7-Bis-{[1-(4-chlorophenyl)-5-propyl-1H-pyrazole-4-carbonyl]amino}5,5-dioxo-5H-5^6-dibenzothiophene-2,8-disulfonic acid, disodium salt]
% T/C (Day) [3]: 50% | IC50 (KDR): 2 µg/mL

Structure (SMILES): COc1ccc(C=CC(=O)Nc2cc3sc4cc(NC(=O)C=Cc5ccc(OC)c(OC)c5Cl)c(C(=O)[O-])cc4c3cc2C(=O)[O-])c(Cl)c1OC.[Na+].[Na+] [disodium salt]
IC50 (KDR): 3 µg/mL

Further lines, with some results ahead:

IC50 (KDR): 0.5 µg/mL
Structure (SMILES): COc1ccc2cc(C(=O)Nc3cc4c(cc3S(=O)(=O)O)-c3cc(S(=O)(=O)O)c(NC(=O)c5cc6ccc(OC)cc6oc5=O)cc3S4(=O)=O)c(=O)oc2c1 [Example 47, 3,7-Bis-[(7-methoxy-2-oxo-benzopyran-3-yl)-carbonylamino]-5,5-dioxo-5H-5^6-dibenzothiophene-2,8-disulfonic acid, disodium salt]
% Control ([2]; 4 hr prior to VEGF): 71% | Lesion Area (measured area of vascular permeability) ([2]; 4 hr prior to VEGF): 32.8 mm^2

IC50 (KDR): 7 µg/mL
Structure (SMILES): O=C(Nc1cc2c(cc1S(=O)(=O)O)-c1cc(S(=O)(=O)O)c(NC(=O)c3ccc(S(=O)(=O)c4ccccc4)cc3)cc1S2(=O)=O)c1ccc(S(=O)(=O)c2ccccc2)cc1 [Example 52, 5,5-Dioxo-3,7-bis-(4-phenyl-sulfonylbenzoyl-amino)-5H-5^6-dibenzothiophene-2,8-disulfonic acid, disodium salt]

IC50 (KDR): 7 µg/mL
Structure (SMILES): CCOc1cc2ccccc2cc1C(=O)Nc1cc2c(cc1S(=O)(=O)O)-c1cc(S(=O)(=O)O)c(NC(=O)c3cc4ccccc4cc3OCC)cc1S2(=O)=O [Example 53, 3,7-Bis-(3-ethoxy-naphthalen-2-ylcarbonylamino)-5,5-dioxo-5H-5^6-dibenzothiophene-2,8-disulfonic acid, disodium salt]

IC50 (KDR): 5 µg/mL
Structure (SMILES): O=C(Nc1cc2c(cc1S(=O)(=O)O)-c1cc(S(=O)(=O)O)c(NC(=O)c3ccc4ccccc4c3)cc1S2(=O)=O)c1ccc2ccccc2c1 [Example 57, 3,7-Bis-[(naphthalen-2-yl)carbonylamino]-5,5-dioxo-5H-5^6-dibenzothiophene-2,8-disulfonic acid, disodium salt]

IC50 (KDR): 1.5 µg/mL
Structure (SMILES): COc1ccc(C(=O)Nc2ccc(C(=O)Nc3cc4c(cc3S(=O)(=O)O)-c3cc(S(=O)(=O)O)c(NC(=O)c5ccc(NC(=O)c6ccc(OC)cc6OC)cc5OC)cc3S4(=O)=O)c(OC)c2)c(OC)c1 [Example 58, 3,7-Bis-({4-[(2,4-dimethoxy-phenyl)carbonyl-amino]-2-methoxy-phenyl}carbonyl-amino)-5,5-dioxo-5H-5^6-dibenzothiophene-2,8-disulfonic acid, disodium salt]

IC50 (KDR): 6 µg/mL
Structure (SMILES): COc1cc(NC(C)=O)ccc1C(=O)Nc1cc2c(cc1S(=O)(=O)O)-c1cc(S(=O)(=O)O)c(NC(=O)c3ccc(NC(C)=O)cc3OC)cc1S2(=O)=O [Example 59, 3,7-Bis-[(4-acetylamino-2-methoxy-phenyl)carbonylamino]-5,5-dioxo-5H-5^6-dibenzothiophene-2,8-disulfonic acid, disodium salt]

IC50 (KDR): 0.5 µg/mL
Structure (SMILES): O=C(Nc1ccc(C(=O)Nc2cc3c(cc2S(=O)(=O)O)-c2cc(S(=O)(=O)O)c(NC(=O)c4ccc(NC(=O)c5ccccc5)cc4)cc2S3(=O)=O)cc1)c1ccccc1 [Example 60, 3,7-Bis-(4-benzoylaminobenzoylamino)-5,5-dioxo-5H-5^6-dibenzothiophene-2,8-disulfonic acid, disodium salt]

Source: patent US6022307A, “Substituted dibenzothiophenes having antiangiogenic activity” (American Cyanamid Company, priority 1999, dated 2000)
